Measured values taken from patent US20220280457A1, “ORAL PHARMACEUTICAL IMMEDIATE RELEASE COMPOSITION AND METHOD OF TREATMENT FOR WEIGHT LOSS” (AARDVARK THERAPEUTICS INC., priority 2019, published 2022).

What was measured:
rodent obesity models = conditions: benzoate salt of denatonium; cited from earlier work
male C57BL/6N DIO mice = assay: 56-day BID treatment of DIO mice: food consumption and body weight (Example 6, second in vivo study); parameters: species or system mouse; conditions: for Body weight gain as compared to vehicle treatment: high-fat diet, oral BID 56 days
Description: In a second in vivo study, 45 male C57BL/6N DIO mice (purchased from Envigo at 18 weeks of age, fed with high-fat diet) were divided into three groups (15 in each group), which were orally administered vehicle (distilled water), 26.8 mg/kg of DB, or 23.1 mg/kg of DA respectively, twice daily (BID), with a 56-day treatment period to compare the efficacy of DB versus DA in food intake reduction and body weight control. Briefly, once weekly, the food weight for each cage was recorded at 0 hour and then 24 hours later, permitting calculation of food consumption for that 24-hour interval. In addition, starting from Day 0, the mice were weighed three times weekly (every 2-3 days).
The mean food consumption per animal for 24-hour intervals at indicated measurement days during the treatment period are shown in Table.
The mean absolute body weight change (in grams) and normalized body weight change (% of baseline) during 56-day treatment period of the three treatment groups are presented in […]. and Table 6.

healthy volunteers = conditions: cited from earlier work
male SD rats = assay: Single oral dose, 24-hour cumulative food intake study in rats (Example 6, first in vivo study); parameters: species or system rat; conditions: for Cumulative food intake as compared with vehicle: all indicated time intervals, DA 23.1 mg/kg, DB 26.8 mg/kg
Description: This example compares efficacy of DA versus DB in food inhibition and body weight control. As a background, according to Avau et al., Sci. Rep. […] In our first in vivo study, 45 male SD rats (purchased from Envigo at 8-10 weeks of age) were divided into three groups (15 in each group), which were administered a single oral dose of vehicle (distilled water), 26.8 mg/kg of DB, or 23.1 mg/kg of DA respectively, with a 24-hour observational period, to compare the efficacy of DB versus DA in reducing food intake.

[1] = system: C57BL/6NTad mice, diet-induced obesity (DIO) mouse model; assay: 56-day diet-induced obesity (DIO) mouse weight loss study, DA versus DB (Example 3); assay type: in vivo; conditions: DA 23.1 mg/kg BID PO
Description: The 56-day study determined the behavioral effects of bitter taste receptor agonists denatonium acetate (DA) compared to denatonium benzoate (DB) in a diet-induced obesity (DIO) mouse model. […] The study duration was a 3-5 day acclimation period +28 day study period and 2-3 day testing period after study. […] The mice were C57BL/6NTad mice at least 12 weeks in age and 15 mice per group (low dose DA, higher dose DA, high dose DB and control). […] Metabolic biomarkers (blood glucose, blood insulin, blood HbA1c) were measured at the beginning and end of the study. The DA, DB or distilled water control was administered per ostium gavage (PO) at a volume of 5 mL/kg body weight.

[2] = oral BID, DA 23.1 mg/kg or DB 26.8 mg/kg

CC[N+](CC)(CC(=O)Nc1c(C)cccc1C)Cc1ccccc1.O=C([O-])c1ccccc1 [DB, benzyl-[2-(2,6-dimethylanilino)-2-oxoethyl]-diethylazanium benzoate]
Food intake and weight gain in rodent obesity models (rodent obesity models): suppressed food intake and inhibited weight gain | Body weight gain as compared to vehicle treatment (male C57BL/6N DIO mice; DA 23.1 mg/kg, DB 26.8 mg/kg): less body weight gain | Mean normalized body weight (% of baseline) on study day 0 (male C57BL/6N DIO mice; [2]): 100.0 % of baseline | Mean normalized body weight (% of baseline) on study day 4 (male C57BL/6N DIO mice; oral BID, DA 23.1 mg/kg or DB 26.8 mg/kg, day 4): 100.5 % of baseline | Mean normalized body weight (% of baseline) on study day 7 (male C57BL/6N DIO mice; oral BID, DA 23.1 mg/kg or DB 26.8 mg/kg, day 7): 99.7 % of baseline | Mean normalized body weight (% of baseline) on study day 9 (male C57BL/6N DIO mice; oral BID, DA 23.1 mg/kg or DB 26.8 mg/kg, day 9): 99.4 % of baseline | Mean normalized body weight (% of baseline) on study day 11 (male C57BL/6N DIO mice; oral BID, DA 23.1 mg/kg or DB 26.8 mg/kg, day 11): 99.0 % of baseline | Mean normalized body weight (% of baseline) on study day 14 (male C57BL/6N DIO mice; oral BID, DA 23.1 mg/kg or DB 26.8 mg/kg, day 14): 99.3 % of baseline | Mean normalized body weight (% of baseline) on study day 16 (male C57BL/6N DIO mice; oral BID, DA 23.1 mg/kg or DB 26.8 mg/kg, day 16): 98.0 % of baseline | Mean normalized body weight (% of baseline) on study day 18 (male C57BL/6N DIO mice; oral BID, DA 23.1 mg/kg or DB 26.8 mg/kg, day 18): 97.9 % of baseline | Mean normalized body weight (% of baseline) on study day 21 (male C57BL/6N DIO mice; oral BID, DA 23.1 mg/kg or DB 26.8 mg/kg, day 21): 99.5 % of baseline | Mean normalized body weight (% of baseline) on study day 23 (male C57BL/6N DIO mice; oral BID, DA 23.1 mg/kg or DB 26.8 mg/kg, day 23): 100.5 % of baseline | Mean normalized body weight (% of baseline) on study day 25 (male C57BL/6N DIO mice; [2]): 100.3 % of baseline | Mean normalized body weight (% of baseline) on study day 28 (male C57BL/6N DIO mice; [2]): 100.2 % of baseline | Mean normalized body weight (% of baseline) on study day 30 (male C57BL/6N DIO mice; [2]): 100.5 % of baseline | Mean normalized body weight (% of baseline) on study day 32 (male C57BL/6N DIO mice; oral BID, DA 23.1 mg/kg or DB 26.8 mg/kg, day 32): 102.8 % of baseline | Mean normalized body weight (% of baseline) on study day 34 (male C57BL/6N DIO mice; oral BID, DA 23.1 mg/kg or DB 26.8 mg/kg, day 34): 103.6 % of baseline | Mean normalized body weight (% of baseline) on study day 36 (male C57BL/6N DIO mice; oral BID, DA 23.1 mg/kg or DB 26.8 mg/kg, day 36): 104.1 % of baseline | Mean normalized body weight (% of baseline) on study day 39 (male C57BL/6N DIO mice; oral BID, DA 23.1 mg/kg or DB 26.8 mg/kg, day 39): 104.7 % of baseline | Mean normalized body weight (% of baseline) on study day 41 (male C57BL/6N DIO mice; oral BID, DA 23.1 mg/kg or DB 26.8 mg/kg, day 41): 105.3 % of baseline | Mean normalized body weight (% of baseline) on study day 46 (male C57BL/6N DIO mice; oral BID, DA 23.1 mg/kg or DB 26.8 mg/kg, day 46): 106.0 % of baseline | Mean normalized body weight (% of baseline) on study day 49 (male C57BL/6N DIO mice; oral BID, DA 23.1 mg/kg or DB 26.8 mg/kg, day 49): 107.8 % of baseline | Mean normalized body weight (% of baseline) on study day 51 (male C57BL/6N DIO mice; oral BID, DA 23.1 mg/kg or DB 26.8 mg/kg, day 51): 107.8 % of baseline | Mean normalized body weight (% of baseline) on study day 53 (male C57BL/6N DIO mice; oral BID, DA 23.1 mg/kg or DB 26.8 mg/kg, day 53): 107.4 % of baseline | Mean normalized body weight (% of baseline) on study day 56 (male C57BL/6N DIO mice; oral BID, DA 23.1 mg/kg or DB 26.8 mg/kg, day 56): 108.4 % of baseline | Nutrient volume tolerance and satiation (healthy volunteers; 1 μmol/kg DB): decreased nutrient volume tolerance and increased satiation | Gastric motility, nutrient volume tolerance, hunger ratings and satiation (healthy volunteers; intragastric administration): attenuated inter-digestive gastric motility, reduced nutrient volume tolerance, decreased hunger ratings, and increased satiation post meal | Cumulative food intake as compared with vehicle (male SD rats): reduced cumulative food intake

CC(=O)[O-].CC[N+](CC)(CC(=O)Nc1c(C)cccc1C)Cc1ccccc1 [DA, Denatonium acetate]
Body weight gain, DA versus DB (male C57BL/6N DIO mice; Day 34 to Day 56, 23.1 mg/kg DA vs 26.8 mg/kg DB): body weight gain was less | Food consumption, DA versus DB (male C57BL/6N DIO mice; all indicated measurement days except for Day 42, 23.1 mg/kg DA vs 26.8 mg/kg DB): food consumption was less | Body weight gain as compared to vehicle treatment (male C57BL/6N DIO mice; DA 23.1 mg/kg, DB 26.8 mg/kg): less body weight gain | Food consumption compared to vehicle-dosed mice (male C57BL/6N DIO mice; oral BID, 56 days, DA 23.1 mg/kg, DB 26.8 mg/kg): nominally decreased food consumption | Mean normalized body weight (% of baseline) on study day 0 (male C57BL/6N DIO mice; [2]): 100.0 % of baseline | Mean normalized body weight (% of baseline) on study day 25 (male C57BL/6N DIO mice; [2]): 100.0 % of baseline | Mean normalized body weight (% of baseline) on study day 28 (male C57BL/6N DIO mice; [2]): 100.0 % of baseline | Mean normalized body weight (% of baseline) on study day 30 (male C57BL/6N DIO mice; [2]): 100.0 % of baseline | Food intake reduction, DA versus DB (male SD rats; 23.1 mg/kg DA (57.4 μmol/kg) vs 26.8 mg/kg DB (60 μmol/kg)): a greater food intake reduction | Cumulative food intake as compared with vehicle (male SD rats): reduced cumulative food intake | Average body weights at the indicated days (FIG. 1) ([1]; 56 days): lowest average body weights | Serum insulin at the end of the 56 day study (FIG. 3) ([1]; versus pre-treatment baseline and vehicle): close to baseline value (i.e., pre-treatment) and noticeably lower compared to the vehicle-treated group
